According to patent publication US20230203043A1, “NOVEL IMIDAZOPYRAZINE DERIVATIVES” (Hoffmann-La Roche Inc., priority 2020, published 2023):
Where a name gives a salt, the structure may show the parent alone.

Tested on: Acinetobacter baumannii ATCC17961
Assay: Antimicrobial susceptibility testing: 90% growth inhibitory concentration (IC90) determination in Iso-Sensitest broth, OD600 growth
Type: cell-based
Conditions: Acinetobacter baumannii, ATCC17961, 16 h, read-out: A. baumannii ATCC 17961 IC90 (uM), strain ATCC 17961, OD600 growth over 16 h
Method in brief: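 Compounds were twofold serially diluted in DMSO across 10 points (e.g. 50 to 0.097 μM final) and inoculated at ~5×10^(5) CFU/ml. Plates incubated at 35±2° C, with OD600 read every 20 minutes over 16 h. IC90 was derived from growth inhibition during logarithmic growth.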

SMILES	IC90
C#CCn1cc(-c2cnc3c(Nc4ccc(C(=O)NCC(=O)NCCN)c(Cl)c4)nccn23)c(C(F)(F)F)n1 [Example 116, N-[2-(2-aminoethylamino)-2-oxoethyl]-2-chloro-4-[[3-[1-prop-2-ynyl-3-(trifluoromethyl)pyrazol-4-yl]imidazo[1,2-a]pyrazin-8-yl]amino]benzamide formate]	0.22 µM
NCCNC(=O)CNC(=O)c1ccc(Nc2nccn3c(-c4cn(CC(F)F)nc4C(F)(F)F)cnc23)cc1Cl [Example 117, N-[2-(2-aminoethylamino)-2-oxoethyl]-2-chloro-4-[[3-[1-(2,2-difluoroethyl)-3-(trifluoromethyl)pyrazol-4-yl]imidazo[1,2-a]pyrazin-8-yl]amino]benzamide formate]	0.338 µM
Cc1cc(Cn2cc(-c3cnc4c(Nc5ccc(C(=O)N6CCNCC6)c(Cl)c5)nccn34)c(C(F)(F)F)n2)n[nH]1 [Example 118, [2-chloro-4-[[3-[1-[(5-methyl-1H-pyrazol-3-yl)methyl]-3-(trifluoromethyl)pyrazol-4-yl]imidazo[1,2-a]pyrazin-8-yl]amino]phenyl]-piperazin-1-ylmethanone formate]	0.343 µM
N#CCn1cc(-c2cnc3c(Nc4ccc(C(=O)NCC(=O)NCCN)c(Cl)c4)nccn23)c(C(F)(F)F)n1 [Example 119, N-[2-(2-aminoethylamino)-2-oxoethyl]-2-chloro-4-[[3-[1-(cyanomethyl)-3-(trifluoromethyl)pyrazol-4-yl]imidazo[1,2-a]pyrazin-8-yl]amino]benzamide formate]	0.476 µM
C[C@H](NC(=O)c1ccc(Nc2nccn3c(-c4c[nH]nc4C(F)(F)F)cnc23)cc1Cl)C(=O)N1CCC(N)CC1 [Example 126, N-[(2S)-1-(4-aminopiperidin-1-yl)-1-oxopropan-2-yl]-2-chloro-4-[[3-[3-(trifluoromethyl)-1H-pyrazol-4-yl]imidazo[1,2-a]pyrazin-8-yl]amino]benzamide formate]	4.15 µM
C[C@H](NC(=O)c1ccc(Nc2nccn3c(-c4c[nH]nc4C(F)(F)F)cnc23)cc1Cl)C(=O)N[C@H]1CCNC1 [Example 127, 2-chloro-N-[(2S)-1-oxo-1-[[(3S)-pyrrolidin-3-yl]amino]propan-2-yl]-4-[[3-[3-(trifluoromethyl)-1H-pyrazol-4-yl]imidazo[1,2-a]pyrazin-8-yl]amino]benzamide formate]	> 5 µM
Cn1cc(Cn2cc(-c3cnc4c(Nc5ccc(C(=O)N6CCNCC6)c(Cl)c5)nccn34)c(C(F)(F)F)n2)cn1 [Example 134, [2-chloro-4-[[3-[1-[(1-methylpyrazol-4-yl)methyl]-3-(trifluoromethyl)pyrazol-4-yl]imidazo[1,2-a]pyrazin-8-yl]amino]phenyl]-piperazin-1-ylmethanone formate]	0.768 µM
O=C(c1ccc(Nc2nccn3c(-c4cn(Cc5cccnn5)nc4C(F)(F)F)cnc23)cc1Cl)N1CCNCC1 [Example 135, [2-chloro-4-[[3-[1-(pyridazin-3-ylmethyl)-3-(trifluoromethyl)pyrazol-4-yl]imidazo[1,2-a]pyrazin-8-yl]amino]phenyl]-piperazin-1-ylmethanone formate]	0.933 µM

Same assay, conditions: Acinetobacter baumannii, ATCC17961, 16 h, strain ATCC 17961, OD600 growth over 16 h, read-out: A. baumannii ATCC 17961 IC90

SMILES	IC90
CCc1cc(Nc2nccn3c(-c4cn(CC#N)nc4C(F)(F)F)cnc23)ccc1C(=O)N[C@H](C)CN [Example 109, N-[(2R)-1-aminopropan-2-yl]-4-[[3-[1-(cyanomethyl)-3-(trifluoromethyl)pyrazol-4-yl]imidazo[1,2-a]pyrazin-8-yl]amino]-2-ethylbenzamide]	0.333 µM
CCc1cc(Nc2nccn3c(-c4cn(CCF)nc4C(F)(F)F)cnc23)ccc1C(=O)N[C@H](C)CN [Example 110, N-[(2R)-1-aminopropan-2-yl]-2-ethyl-4-[[3-[1-(2-fluoroethyl)-3-(trifluoromethyl)pyrazol-4-yl]imidazo[1,2-a]pyrazin-8-yl]amino]benzamide]	0.506 µM
O=C(c1ccc(Nc2nccn3c(-c4c[nH]nc4C(F)(F)F)cnc23)cc1Cl)N1CC2(CNC2)C1 [Example 111, [2-chloro-4-[[3-[3-(trifluoromethyl)-1H-pyrazol-4-yl]imidazo[1,2-a]pyrazin-8-yl]amino]phenyl]-(2,6-diazaspiro[3.3]heptan-2-yl)methanone]	0.997 µM
C#CCn1cc(-c2cnc3c(Nc4ccc(C(=O)NCC)c(CC)c4)nccn23)c(C(F)(F)F)n1 [Example 112, N,2-diethyl-4-[[3-[1-prop-2-ynyl-3-(trifluoromethyl)pyrazol-4-yl]imidazo[1,2-a]pyrazin-8-yl]amino]benzamide]	0.231 µM
CCNC(=O)c1ccc(Nc2nccn3c(-c4cn(CC#N)nc4C(F)(F)F)cnc23)cc1CC [Example 113, 4-[[3-[1-(cyanomethyl)-3-(trifluoromethyl)pyrazol-4-yl]imidazo[1,2-a]pyrazin-8-yl]amino]-N,2-diethylbenzamide]	0.234 µM
CCNC(=O)c1ccc(Nc2nccn3c(-c4cn(CCF)nc4C(F)(F)F)cnc23)cc1CC [Example 114, N,2-diethyl-4-[[3-[1-(2-fluoroethyl)-3-(trifluoromethyl)pyrazol-4-yl]imidazo[1,2-a]pyrazin-8-yl]amino]benzamide]	0.329 µM
O=C(c1ccc(Nc2nccn3c(-c4cn(CC(F)F)nc4C(F)(F)F)cnc23)cc1Cl)N1CCN(C(=O)[C@@H]2CCCN2)CC1 [Example 115, [2-chloro-4-[[3-[1-(2,2-difluoroethyl)-3-(trifluoromethyl)pyrazol-4-yl]imidazo[1,2-a]pyrazin-8-yl]amino]phenyl]-[4-[(2S)-pyrrolidine-2-carbonyl]piperazin-1-yl]methanone]	0.251 µM
O=C(c1ccc(Nc2nccn3c(-c4cn(CC(F)F)nc4C(F)(F)F)cnc23)cc1Cl)N1CCNCC1 [Example 120, [2-chloro-4-[[3-[1-(2,2-difluoroethyl)-3-(trifluoromethyl)pyrazol-4-yl]imidazo[1,2-a]pyrazin-8-yl]amino]phenyl]-piperazin-1-ylmethanone]	0.109 µM
C=CCn1cc(-c2cnc3c(Nc4ccc(C(=O)NCCOCCN)c(CC)c4)nccn23)c(C(F)F)n1 [Example 121, N-[2-(2-aminoethoxy)ethyl]-4-[[3-[3-(difluoromethyl)-1-prop-2-enylpyrazol-4-yl]imidazo[1,2-a]pyrazin-8-yl]amino]-2-ethylbenzamide]	0.201 µM

More lines, now with the values ahead:

IC90	SMILES
0.208 µM	CCc1cc(Nc2nccn3c(-c4cn(CC(F)F)nc4C(F)F)cnc23)ccc1C(=O)NCCOCCN [Example 122, N-[2-(2-aminoethoxy)ethyl]-4-[[3-[1-(2,2-difluoroethyl)-3-(difluoromethyl)pyrazol-4-yl]imidazo[1,2-a]pyrazin-8-yl]amino]-2-ethylbenzamide]
0.209 µM	C#CCn1cc(-c2cnc3c(Nc4ccc(C(=O)NCCOCCN)c(CC)c4)nccn23)c(C(F)F)n1 [Example 123, N-[2-(2-aminoethoxy)ethyl]-4-[[3-[3-(difluoromethyl)-1-prop-2-ynylpyrazol-4-yl]imidazo[1,2-a]pyrazin-8-yl]amino]-2-ethylbenzamide]
0.121 µM	CNC(=O)c1ccc(Nc2nccn3c(-c4cn(CC(F)F)nc4C(F)(F)F)cnc23)cc1Cl [Example 124, 2-chloro-4-[[3-[1-(2,2-difluoroethyl)-3-(trifluoromethyl)pyrazol-4-yl]imidazo[1,2-a]pyrazin-8-yl]amino]-N-methylbenzamide]
2.23 µM	O=C(CNC(=O)c1ccc(Nc2nccn3c(-c4c[nH]nc4C(F)(F)F)cnc23)cc1Cl)N[C@H]1CCNC1 [Example 125, 2-chloro-N-[2-oxo-2-[[(3S)-pyrrolidin-3-yl]amino]ethyl]-4-[[3-[3-(trifluoromethyl)-1H-pyrazol-4-yl]imidazo[1,2-a]pyrazin-8-yl]amino]benzamide]
0.117 µM	NCC(=O)N1CCN(C(=O)c2ccc(Nc3nccn4c(-c5c[nH]nc5C(F)(F)F)cnc34)cc2Cl)CC1 [Example 131, 2-amino-1-[4-[2-chloro-4-[[3-[3-(trifluoromethyl)-1H-pyrazol-4-yl]imidazo[1,2-a]pyrazin-8-yl]amino]benzoyl]piperazin-1-yl]ethanone]
0.136 µM	N#CCn1cc(-c2cnc3c(Nc4ccc(C(=O)N5CCN(C(=O)CN)CC5)c(Cl)c4)nccn23)c(C(F)(F)F)n1 [Example 132, 2-[4-[8-[4-[4-(2-aminoacetyl)piperazine-1-carbonyl]-3-chloroanilino]imidazo[1,2-a]pyrazin-3-yl]-3-(trifluoromethyl)pyrazol-1-yl]acetonitrile]
0.322 µM	O=C(CC1CNC1)N1CCN(C(=O)c2ccc(Nc3nccn4c(-c5c[nH]nc5C(F)(F)F)cnc34)cc2Cl)CC1 [Example 133, 2-(azetidin-3-yl)-1-[4-[2-chloro-4-[[3-[3-(trifluoromethyl)-1H-pyrazol-4-yl]imidazo[1,2-a]pyrazin-8-yl]amino]benzoyl]piperazin-1-yl]ethanone]

Same assay, conditions: strain ATCC 17961, OD600 growth over 16 h, read-out: A. baumannii ATCC 17961 IC90

IC90	SMILES
0.659 µM	C#CCn1cc(-c2cnc3c(Nc4ccc(C(=O)N[C@H](C)CNC(=O)OC(C)(C)C)c(CC)c4)nccn23)c(C(F)(F)F)n1 [Example 128, tert-butyl N-[(2R)-2-[[2-ethyl-4-[[3-[1-prop-2-ynyl-3-(trifluoromethyl)pyrazol-4-yl]imidazo[1,2-a]pyrazin-8-yl]amino]benzoyl]amino]propyl] carbamate]
1.06 µM	C=CCn1cc(-c2cnc3c(Nc4ccc(C(=O)N[C@H](C)CNC(=O)OC(C)(C)C)c(CC)c4)nccn23)c(C(F)(F)F)n1 [Example 129, tert-butyl N-[(2R)-2-[[2-ethyl-4-[[3-[1-prop-2-enyl-3-(trifluoromethyl)pyrazol-4-yl]imidazo[1,2-a]pyrazin-8-yl]amino]benzoyl]amino]propyl] carbamate]
1.33 µM	CCc1cc(Nc2nccn3c(-c4cn(CC(F)F)nc4C(F)(F)F)cnc23)ccc1C(=O)N[C@H](C)CNC(=O)OC(C)(C)C [Example 130, tert-butyl N-[(2R)-2-[[4-[[3-[1-(2,2-difluoroethyl)-3-(trifluoromethyl)pyrazol-4-yl]imidazo[1,2-a]pyrazin-8-yl]amino]-2-ethylbenzoyl]amino]propyl] carbamate]
